# In patent US10316057B2, “Tandem facial amphiphiles” (WISCONSIN ALUMNI RESEARCH FOUNDATION, priority 2011, dated 2019):
# Structures can show the parent of a compound that is named as a salt.
# What was measured:
# [1] = Water solubility and hydrogel formation; format: physicochemical
# Method: (§1) TFA-0 forms a hydrogel at concentrations >0.4 wt %, and this compound was not studied further. The other three TFAs are soluble to 5-10 wt % in aqueous media. Critical micelle concentrations (CMC) were determined by monitoring solubilization of a hydrophobic fluorescent dye, […] (Chattopadhyay et al., Anal. Biochem. 1984, 139, 408-412), and the hydrodynamic radii (Rh) of the micelles were determined via dynamic light scattering (DLS). Table 1 compares the data for TFAs with those for DDM, a conventional detergent that is very widely used for MP applications; DDM and the TFAs share maltose as their hydrophilic moieties. CMC values of the three TFAs are smaller than that of DDM, whether CMC is measured in units of mM or wt %.
# Several amphiphiles (TFA 1a-10a) were prepared and evaluated for their water solubility and critical micelle concentration (CMC). […] Examples of these TFAs include compounds of Formula VI: […]
# These TFAs can be used to prepare hydrogels, which can be used tissue engineering or drug delivery applications. Examples of the generally water-insoluble TFAs include compounds of Formula XX: […]
# (§2) Analysis of these TFAs for their CMC values provided the data in Table 3.
# [2] = Critical micelle concentration by solubilization of a hydrophobic fluorescent dye; format: physicochemical
# Excerpt: The “Critical Micelle Concentration” (CMC) refers to the concentration of a detergent (e.g., an amphiphile as described herein) in an aqueous solution at which the detergent molecules self-assemble into micelles. Below the CMC, detergents are mostly monomeric; above the CMC, micelle concentration increases linearly with detergent concentration. The CMC is dependent upon many factors and is detergent-specific. The CMC of a detergent can be determined experimentally by measuring the solubilization of a water-insoluble dye or fluorophore while varying the concentration of detergent. A CMC may also be determined by measuring the diminution of the surface tension of an aqueous solution as a function of detergent concentration (CMCs determined by either method correlate with each other). The CMC is determined by extrapolating the plot of solubilization vs. concentration (or surface tension vs. concentration) in the two linear regions above and below the CMC. Where the two lines intersect is the CMC. The CMC can also be determined by the method of Nugebauer, J. M. (1990), Methods in Enzymology, 182:239-253.
# as §1, §2
# [3] = Hydrodynamic radii of micelles by dynamic light scattering (DLS); format: physicochemical; settings: 0.5 wt % amphiphile in water, 25° C.; mean ± SD, n = 3
# Method: as §1
# Each TFA and DDM was dissolved in distilled, deionized (DI) water to obtain 1 mL of a solution containing 0.5 wt % amphiphile. Each solution was filtered through a 0.02 μm filter for DLS measurements. A 100-mW, 532-nm laser (Compass 315M-100, Coherent, Santa Clara, Calif.) illuminated a temperature-controlled glass cell at 25° C. that was filled with a refractive-index matching fluid (decahydronaphthalene, Fisher Scientific, Pittsburgh, Pa.). The scattered light was collected at an angle of 90° for about 30 minutes. Rh values were determined using the integrated dynamics software that analyzes the time scale of the scattered light intensity fluctuations by an autocorrelation function. The autocorrelation functions (ACFs) were obtained using a BI-9000AT digital autocorrelator (Brookhaven Instruments, Holtsville, N.Y.). Measurements were repeated three times.
# [4] = system: leucine transporter (LeuT WT); experiment: LeuT functionality assay ([3H]-Leu binding by scintillation proximity assay); parameters: species or system Aquifex aeolicus; settings: higher amphiphile concentration, CMC+0.2 wt %, room temperature
# Excerpt: The wild type of bacterial leucine transporter (LeuT WT) was examined because the functional state of this membrane protein is readily assessed by using a scintillation proximity assay (SPA) (Quick et al., Proc. Natl. Acad. Sci. USA 2007, 104, 3603-3608) to monitor binding of radiolabelled leucine. LeuT was initially extracted with DDM and then diluted with amphiphile-containing solutions to generate final TFA concentrations of 0.04 wt % or 0.2 wt % (residual DDM=0.005 wt %). Control samples had 0.05 wt % or 0.2 wt % DDM (overall, the final concentrations were CMC+0.04 wt % or CMC+0.2 wt %).
# The wild type of the leucine transporter (LeuT WT) from Aquifex aeolicus was expressed in Escherichia coli essentially as described by Deckert et al. (Nature 392, 353-358 (1998)). The pET16b-LeuT WT-8His plasmid was kindly provided by Dr. Eric Gouaux, Vollum Institute, Portland Oreg. LeuT WT was extracted from isolated bacterial membranes solubilized with 1% DDM, bound to Ni^2+-affinity Chelating Sepharose Fast Flow resin (GE Healthcare, USA), and eluted in buffer consisted of 20 mM Tris-HCl (pH 8.0), 1 mM NaCl, 199 mM KCl, 0.05% DDM and 300 mM imidazole. […] After incubation at room temperature, at the indicated time points, samples were centrifuged and the protein concentration was determined by absorbance measurements at 280 nm. Concomitantly, [^3H]-Leu binding was determined using scintillation proximity assay (SPA) (Quick and Javitch, Proc. Natl. Acad. Sci. USA 104, 3603-3608 (2007)), with the reaction mixture consisted of 5 μL from the respective samples, 33.3 nM [^3H]-Leu (PerkinElmer, USA) and copper chelate (His-Tag) YSi beads (GE Healthcare). […] Normalized results are expressed as mean±SEM (n=2), as illustrated in FIG. 11 (long-term solubility of LeuT WT incubated in the presence of TFA-1, TFA-3, and DDM at (a) CMC+0.04 wt % or (b) CMC+0.2 wt % at room temperature).
compound,measurement,setting,value
C[C@H](CCC(=O)NCCCNC(=O)CC[C@@H](C)[C@H]1CC[C@H]2[C@@H]3CC[C@@H]4C[C@H](O[C@@H]5O[C@H](CO)[C@@H](O[C@H]6O[C@H](CO)[C@@H](O)[C@H](O)[C@H]6O)[C@H](O)[C@H]5O)CC[C@]4(C)[C@H]3C[C@H](O[C@@H]3O[C@H](CO)[C@@H](O[C@H]4O[C@H](CO)[C@@H](O)[C@H](O)[C@H]4O)[C@H](O)[C@H]3O)[C@]12C)[C@H]1CC[C@H]2[C@@H]3CC[C@@H]4C[C@H](O[C@@H]5O[C@H](CO)[C@@H](O[C@H]6O[C@H](CO)[C@@H](O)[C@H](O)[C@H]6O)[C@H](O)[C@H]5O)CC[C@]4(C)[C@H]3C[C@H](O[C@@H]3O[C@H](CO)[C@@H](O[C@H]4O[C@H](CO)[C@@H](O)[C@H](O)[C@H]4O)[C@H](O)[C@H]3O)[C@]12C [TFA-0],concentration at which a hydrogel forms,[1]; in water,> 0.4 wt %
CCN(CCCN(CC)C(=O)CC[C@@H](C)[C@H]1CC[C@H]2[C@@H]3CC[C@@H]4C[C@H](O[C@@H]5O[C@H](CO)[C@@H](O[C@H]6O[C@H](CO)[C@@H](O)[C@H](O)[C@H]6O)[C@H](O)[C@H]5O)CC[C@]4(C)[C@H]3C[C@H](O[C@@H]3O[C@H](CO)[C@@H](O[C@H]4O[C@H](CO)[C@@H](O)[C@H](O)[C@H]4O)[C@H](O)[C@H]3O)[C@]12C)C(=O)CC[C@@H](C)[C@H]1CC[C@H]2[C@@H]3CC[C@@H]4C[C@H](O[C@@H]5O[C@H](CO)[C@@H](O[C@H]6O[C@H](CO)[C@@H](O)[C@H](O)[C@H]6O)[C@H](O)[C@H]5O)CC[C@]4(C)[C@H]3C[C@H](O[C@@H]3O[C@H](CO)[C@@H](O[C@H]4O[C@H](CO)[C@@H](O)[C@H](O)[C@H]4O)[C@H](O)[C@H]3O)[C@]12C [TFA-2],CMC,"[2]; mean ± SD, n = 3",0.013 ± 0.0018 mM
same,CMC (wt %),"[2]; mean ± SD, n = 3",0.0028 ± 0.00039 wt %
same,"Rh (nm), hydrodynamic radius of micelles measured by dynamic light scattering",[3],2.0 ± 0.03 nm
CCCCN(CCCN(CCCC)C(=O)CC[C@@H](C)[C@H]1CC[C@H]2[C@@H]3CC[C@@H]4C[C@H](O[C@@H]5O[C@H](CO)[C@@H](O[C@H]6O[C@H](CO)[C@@H](O)[C@H](O)[C@H]6O)[C@H](O)[C@H]5O)CC[C@]4(C)[C@H]3C[C@H](O[C@@H]3O[C@H](CO)[C@@H](O[C@H]4O[C@H](CO)[C@@H](O)[C@H](O)[C@H]4O)[C@H](O)[C@H]3O)[C@]12C)C(=O)CC[C@@H](C)[C@H]1CC[C@H]2[C@@H]3CC[C@@H]4C[C@H](O[C@@H]5O[C@H](CO)[C@@H](O[C@H]6O[C@H](CO)[C@@H](O)[C@H](O)[C@H]6O)[C@H](O)[C@H]5O)CC[C@]4(C)[C@H]3C[C@H](O[C@@H]3O[C@H](CO)[C@@H](O[C@H]4O[C@H](CO)[C@@H](O)[C@H](O)[C@H]4O)[C@H](O)[C@H]3O)[C@]12C [TFA-3],CMC,"[2]; mean ± SD, n = 3",0.007 ± 0.0023 mM
same,CMC (wt %),"[2]; mean ± SD, n = 3",0.0016 ± 0.00051 wt %
same,"Rh (nm), hydrodynamic radius of micelles measured by dynamic light scattering",[3],3.3 ± 0.12 nm
same,maintaining LeuT WT function over 12 days,[4],matched DDM at the lower concentration
CC(CCC(=O)N(C)CCCN(C)C(=O)CCC(C)C1CCC2C3CCC4CC(OC5OC(CO)C(OC6OC(CO)C(O)C(O)C6O)C(O)C5O)CCC4(C)C3CC(OC3OC(CO)C(OC4OC(CO)C(O)C(O)C4O)C(O)C3O)C12C)C1CCC2C3CCC4CC(OC5OC(CO)C(OC6OC(CO)C(O)C(O)C6O)C(O)C5O)CCC4(C)C3CC(OC3OC(CO)C(OC4OC(CO)C(O)C(O)C4O)C(O)C3O)C12C (centres unmarked) [TFA-4a],CMC,"[2]; Example 4, Table 3",0.014 mM
same,CMC (wt. %),"[2]; Example 4, Table 3",0.0030 wt. %
CC(CCC(=O)NCc1ccc(CNC(=O)CCC(C)C2CCC3C4CCC5CC(OC6OC(CO)C(OC7OC(CO)C(O)C(O)C7O)C(O)C6O)CCC5(C)C4CC(OC4OC(CO)C(OC5OC(CO)C(O)C(O)C5O)C(O)C4O)C23C)cc1)C1CCC2C3CCC4CC(OC5OC(CO)C(OC6OC(CO)C(O)C(O)C6O)C(O)C5O)CCC4(C)C3CC(OC3OC(CO)C(OC4OC(CO)C(O)C(O)C4O)C(O)C3O)C12C (centres unmarked) [TFA-6a],water solubility,"[1]; Example 4, under the conditions evaluated",insoluble
CCN(CCCN(CC)C(=O)CCC(C)C1CCC2C3CCC4CC(OC5OC(CO)C(OC6OC(CO)C(O)C(O)C6O)C(O)C5O)CCC4(C)C3CC(OC3OC(CO)C(OC4OC(CO)C(O)C(O)C4O)C(O)C3O)C12C)C(=O)CCC(C)C1CCC2C3CCC4CC(OC5OC(CO)C(OC6OC(CO)C(O)C(O)C6O)C(O)C5O)CCC4(C)C3CC(OC3OC(CO)C(OC4OC(CO)C(O)C(O)C4O)C(O)C3O)C12C (centres unmarked) [TFA-7a],CMC,"[2]; Example 4, Table 3",0.013 mM
same,CMC (wt. %),"[2]; Example 4, Table 3",0.0028 wt. %
CCCCN(CCCN(CCCC)C(=O)CCC(C)C1CCC2C3CCC4CC(OC5OC(CO)C(OC6OC(CO)C(O)C(O)C6O)C(O)C5O)CCC4(C)C3CC(OC3OC(CO)C(OC4OC(CO)C(O)C(O)C4O)C(O)C3O)C12C)C(=O)CCC(C)C1CCC2C3CCC4CC(OC5OC(CO)C(OC6OC(CO)C(O)C(O)C6O)C(O)C5O)CCC4(C)C3CC(OC3OC(CO)C(OC4OC(CO)C(O)C(O)C4O)C(O)C3O)C12C (centres unmarked) [TFA-9a],CMC,"[2]; Example 4, Table 3",0.01 mM
same,CMC (wt. %),"[2]; Example 4, Table 3",0.0022 wt. %
CCCCCN(CCCN(CCCCC)C(=O)CCC(C)C1CCC2C3CCC4CC(OC5OC(CO)C(OC6OC(CO)C(O)C(O)C6O)C(O)C5O)CCC4(C)C3CC(OC3OC(CO)C(OC4OC(CO)C(O)C(O)C4O)C(O)C3O)C12C)C(=O)CCC(C)C1CCC2C3CCC4CC(OC5OC(CO)C(OC6OC(CO)C(O)C(O)C6O)C(O)C5O)CCC4(C)C3CC(OC3OC(CO)C(OC4OC(CO)C(O)C(O)C4O)C(O)C3O)C12C (centres unmarked) [TFA-10a],CMC,"[2]; Example 4, Table 3",0.004 mM
same,CMC (wt. %),"[2]; Example 4, Table 3",0.0009 wt. %
